# Measured values published in PubChem BioAssay (NCI).
#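 In this assay, cells in 96-well plates receive the compound at five concentrations for 48 hours. Endpoints are linearly interpolated between the surrounding concentrations. At the GI50, growth is halved. At the TGI there is no net growth.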
# Key:
# Experiment in all cases: inhibition of tumour cell growth, NCI panel, 48 h
# HOP-92 NSCLC = system: HOP-92 NSCLC
# SK-MEL-28 melanoma = system: SK-MEL-28 melanoma
# SK-MEL-5 melanoma = system: SK-MEL-5 melanoma
# CAKI-1 renal = system: CAKI-1 renal
# HCT-15 colon = system: HCT-15 colon
# HT29 colon = system: HT29 colon
# OVCAR-8 ovarian = system: OVCAR-8 ovarian
# SNB-75 CNS = system: SNB-75 CNS
# OVCAR-4 ovarian = system: OVCAR-4 ovarian
# IGROV1 ovarian = system: IGROV1 ovarian
Compound,GI50 (HOP-92 NSCLC) [µM],TGI (HOP-92 NSCLC) [µM],GI50 (SK-MEL-28 melanoma) [µM],TGI (SK-MEL-28 melanoma) [µM],GI50 (SK-MEL-5 melanoma) [µM],TGI (SK-MEL-5 melanoma) [µM],GI50 (CAKI-1 renal) [µM],TGI (CAKI-1 renal) [µM],GI50 (HCT-15 colon) [µM],TGI (HCT-15 colon) [µM],GI50 (HT29 colon) [µM],TGI (HT29 colon) [µM],GI50 (OVCAR-8 ovarian) [µM],TGI (OVCAR-8 ovarian) [µM],GI50 (SNB-75 CNS) [µM],TGI (SNB-75 CNS) [µM],GI50 (OVCAR-4 ovarian) [µM],TGI (OVCAR-4 ovarian) [µM],GI50 (IGROV1 ovarian) [µM],TGI (IGROV1 ovarian) [µM]
CC#C/C(=N\OC[C@H]1COCCN1)c1ccc2ncnc(Nc3ccc(OCc4cccc(F)c4)c(Cl)c3)c2c1,1.14,2.48,1.77,3.34,1.85,3.45,0.183,10.4,1.41,2.81,1.62,3.09,1.76,4.27,1.46,2.82,1.52,3.16,–,–
COc1ccc(/C=C2\CC(C)CC3C2=NN(C(C)=O)C3c2ccc(OC)cc2)cc1 (configuration not stated),17.2,44.2,–,–,13.9,31.3,30.5,> 100,16,38.7,9.08,40.2,28.1,> 100,17.7,53.3,12.2,36.5,31.6,> 100
Cc1nccc2c3ccc(OCc4cn(-c5ccc(Cl)cc5)nn4)cc3n(CCCc3ccccc3)c12,4.98,21.3,1.3,5.71,25.8,> 33.3,–,–,2.57,> 33.3,3.07,> 33.3,1.21,4.22,0.565,1.57,4.34,10.4,6.93,> 33.3
CCN(CC)CCCC(C)Nc1nc(C)cc(Nc2ccc3nc(C)cc(N)c3c2)n1 (configuration not stated),–,–,24.3,50.1,> 100,> 100,–,–,> 100,> 100,24.4,75.2,84.5,> 100,19.8,> 100,20.9,60.8,28,> 100
CC(=O)OC1CC2Oc3ccc(C)cc3C(C)(O2)C1=O (configuration not stated),–,–,–,> 100,–,> 100,–,–,–,> 100,–,> 100,–,> 100,–,> 100,–,–,–,> 100
COc1ccc(C[C@@H]2NC[C@@H](O)[C@@H]2OC(C)=O)cc1,–,0.0448,–,0.127,0.456,–,30.3,–,–,0.19,–,–,3.48,0.112,–,0.0692,25.9,–,0.367,8.14
COc1ccc(NC(=O)CC/C(CC(=O)C(C)(C)C)=N\NC(=O)C(N)=O)cc1,–,> 100,–,> 100,–,–,–,> 100,–,> 100,–,> 100,–,> 100,–,–,–,> 100,–,> 100
CCN1C2=NCCN2S(=O)(=O)c2ccccc21,–,> 100,–,> 100,–,> 100,–,> 100,–,> 100,–,> 100,–,> 100,–,–,–,> 100,–,> 100
O=c1cc(-c2ccccc2)oc2cc(O)cc(O)c12,–,38.7,–,43.5,–,23.4,–,–,–,64,–,> 100,–,–,–,31.2,–,> 100,–,–
